Several values for one entry are separate records, joined by “and”; a condition that tells them apart may be missing. Equal entries are not always repeated. ± gives the expanded uncertainty stated by the source.
Assay: relative permittivity at various frequencies (dimensionless); wn = mass fraction of the nth substance listed
Conditions: Liquid, direct capacitance:P =

O=C=O [carbon dioxide] + CCO
Conditions | relative permittivity
333.2 K, 10500 kPa, w2 = 0.05 | 1.32 ± 0.15
333.2 K, 11200 kPa, w2 = 0.05 | 1.41 ± 0.15
333.2 K, 11900 kPa, w2 = 0.212 | 2.38 ± 0.15
333.2 K, 12100 kPa, w2 = 0.05 | 1.48 ± 0.14
333.2 K, 12900 kPa, w2 = 0.212 | 2.45 ± 0.15
333.2 K, 13000 kPa, w2 = 0.05 | 1.54 ± 0.14 and 1.53 ± 0.14
333.2 K, 13200 kPa, w2 = 0.212 | 2.47 ± 0.15
333.2 K, 13700 kPa, w2 = 0.05 | 1.57 ± 0.14
333.2 K, 14100 kPa, w2 = 0.212 | 2.52 ± 0.14
333.2 K, 14700 kPa, w2 = 0.212 | 2.54 ± 0.14
333.2 K, 14900 kPa, w2 = 0.05 | 1.62 ± 0.14
333.2 K, 15800 kPa, w2 = 0.212 | 2.59 ± 0.14
333.2 K, 15900 kPa, w2 = 0.05 | 1.64 ± 0.14
333.2 K, 16200 kPa, w2 = 0.212 | 2.61 ± 0.14
333.2 K, 16900 kPa, w2 = 0.212 | 2.62 ± 0.14
333.2 K, 17000 kPa, w2 = 0.05 | 1.67 ± 0.14
333.2 K, 17300 kPa, w2 = 0.212 | 2.64 ± 0.14
333.2 K, 17600 kPa, w2 = 0.05 | 1.69 ± 0.14
333.2 K, 18500 kPa, w2 = 0.212 | 2.68 ± 0.14
333.2 K, 19100 kPa, w2 = 0.05 | 1.72 ± 0.14
333.2 K, 19100 kPa, w2 = 0.212 | 2.7 ± 0.14
333.2 K, 19200 kPa, w2 = 0.212 | 2.7 ± 0.14
333.2 K, 19400 kPa, w2 = 0.05 | 1.72 ± 0.14
333.2 K, 21000 kPa, w2 = 0.05 | 1.75 ± 0.14
333.2 K, 21200 kPa, w2 = 0.212 | 2.75 ± 0.14
333.2 K, 21300 kPa, w2 = 0.212 | 2.75 ± 0.14
333.2 K, 21600 kPa, w2 = 0.05 | 1.75 ± 0.14
333.2 K, 22900 kPa, w2 = 0.05 | 1.77 ± 0.14
333.2 K, 23000 kPa, w2 = 0.212 | 2.79 ± 0.14
333.2 K, 23100 kPa, w2 = 0.212 | 2.79 ± 0.14
333.2 K, 23700 kPa, w2 = 0.05 | 1.78 ± 0.14
333.2 K, 24900 kPa, w2 = 0.212 | 2.83 ± 0.14
333.2 K, 25000 kPa, w2 = 0.05 | 1.8 ± 0.14
333.2 K, 25000 kPa, w2 = 0.212 | 2.83 ± 0.14
333.2 K, 25200 kPa, w2 = 0.212 | 2.83 ± 0.14
333.2 K, 25500 kPa, w2 = 0.212 | 2.85 ± 0.14
333.2 K, 26800 kPa, w2 = 0.212 | 2.86 ± 0.14
333.2 K, 26900 kPa, w2 = 0.05 | 1.82 ± 0.14
333.2 K, 27000 kPa, w2 = 0.212 | 2.87 ± 0.14
333.2 K, 27400 kPa, w2 = 0.05 | 1.82 ± 0.14
333.2 K, 28400 kPa, w2 = 0.212 | 2.9 ± 0.14
333.2 K, 28800 kPa, w2 = 0.05 | 1.83 ± 0.14
333.2 K, 29900 kPa, w2 = 0.05 | 1.84 ± 0.14
333.2 K, 30600 kPa, w2 = 0.212 | 2.94 ± 0.14
333.3 K, 11800 kPa, w2 = 0.152 | 1.99 ± 0.14
333.3 K, 11900 kPa, w2 = 0.1 | 1.74 ± 0.14
333.3 K, 12900 kPa, w2 = 0.1 | 1.81 ± 0.14
333.3 K, 12900 kPa, w2 = 0.152 | 2.07 ± 0.14
333.3 K, 13700 kPa, w2 = 0.1 | 1.86 ± 0.14
333.3 K, 13800 kPa, w2 = 0.152 | 2.11 ± 0.14
333.3 K, 14800 kPa, w2 = 0.1 | 1.9 ± 0.14
333.3 K, 14800 kPa, w2 = 0.152 | 2.16 ± 0.14
333.3 K, 15700 kPa, w2 = 0.1 | 1.94 ± 0.14
333.3 K, 15900 kPa, w2 = 0.152 | 2.2 ± 0.14
333.3 K, 16700 kPa, w2 = 0.1 | 1.96 ± 0.14
333.3 K, 16700 kPa, w2 = 0.152 | 2.22 ± 0.14
333.3 K, 17700 kPa, w2 = 0.152 | 2.26 ± 0.14
333.3 K, 17800 kPa, w2 = 0.1 | 2 ± 0.14
333.3 K, 18500 kPa, w2 = 0.1 | 2.01 ± 0.14
333.3 K, 18700 kPa, w2 = 0.152 | 2.28 ± 0.14
333.3 K, 19400 kPa, w2 = 0.1 | 2.03 ± 0.14
333.3 K, 19600 kPa, w2 = 0.1 | 2.03 ± 0.14
333.3 K, 19700 kPa, w2 = 0.152 | 2.31 ± 0.14
333.3 K, 20600 kPa, w2 = 0.1 | 2.06 ± 0.14
333.3 K, 20800 kPa, w2 = 0.152 | 2.33 ± 0.14
333.3 K, 21700 kPa, w2 = 0.1 | 2.08 ± 0.14
333.3 K, 22000 kPa, w2 = 0.152 | 2.36 ± 0.14
333.3 K, 22600 kPa, w2 = 0.1 | 2.09 ± 0.14
333.3 K, 22700 kPa, w2 = 0.152 | 2.37 ± 0.14
333.3 K, 23500 kPa, w2 = 0.152 | 2.38 ± 0.14
333.3 K, 23900 kPa, w2 = 0.1 | 2.11 ± 0.14
333.3 K, 24500 kPa, w2 = 0.152 | 2.4 ± 0.14
333.3 K, 24800 kPa, w2 = 0.1 | 2.12 ± 0.14
333.3 K, 25200 kPa, w2 = 0.1 | 2.13 ± 0.14
333.3 K, 25600 kPa, w2 = 0.1 | 2.14 ± 0.14 and 2.13 ± 0.14
333.3 K, 25600 kPa, w2 = 0.152 | 2.42 ± 0.14
333.3 K, 26500 kPa, w2 = 0.1 | 2.15 ± 0.14
333.3 K, 26600 kPa, w2 = 0.1 | 2.15 ± 0.14
333.3 K, 26600 kPa, w2 = 0.152 | 2.43 ± 0.14
333.3 K, 27200 kPa, w2 = 0.1 | 2.16 ± 0.14
333.3 K, 27500 kPa, w2 = 0.1 | 2.16 ± 0.14
333.3 K, 27600 kPa, w2 = 0.152 | 2.45 ± 0.14
333.3 K, 27900 kPa, w2 = 0.1 | 2.16 ± 0.14
333.3 K, 28400 kPa, w2 = 0.152 | 2.46 ± 0.14
333.3 K, 28500 kPa, w2 = 0.1 | 2.17 ± 0.14
333.3 K, 29200 kPa, w2 = 0.1 | 2.18 ± 0.14
333.3 K, 29200 kPa, w2 = 0.152 | 2.47 ± 0.14
333.3 K, 29900 kPa, w2 = 0.152 | 2.48 ± 0.14

From the NIST ThermoML archive (doi:10.1021/je2003012)
